Measured values reported in patent publication US8586751B2, “Nicotinamide compounds useful as kinase modulators” (Bristol-Myers Squibb Company, priority 2009, dated 2013).
pIC50: −log10 of the molar value.

Assays:
[1] = target: T1, human recombinant Btk (Homo sapiens, UniProt Q06187); assay: Human Recombinant Btk Enzyme Assay (LLE_BTK); assay type: biochemical
T1 construct: purchased Invitrogen Corporation
Description: Human Recombinant Btk Enzyme Assay
To V-bottom 384-well plates were added test compounds, human recombinant Btk (1 nM, Invitrogen Corporation), fluoresceinated peptide (1.5 μM), ATP (20 μM), and assay buffer (20 mM HEPES pH 7.4, 10 mM MgCl2, 0.015% Brij35 and 4 mM DTT in 1.6% DMSO), with a final volume of 30 μL. After incubating at room temperature for 60 min, the reaction was terminated by adding 45 μl of 35 mM EDTA to each sample. The reaction mixture was analyzed on the Caliper LABCHIP® 3000 (Caliper, Hopkinton, Mass.) by electrophoretic separation of the fluorescent substrate and phosphorylated product. Inhibition data were calculated by comparison to no enzyme control reactions for 100% inhibition and no inhibitor controls for 0% inhibition. Dose response curves were generated to determine the concentration required inhibiting 50% of kinase activity (IC50). Compounds were dissolved at 10 mM in dimethylsulfoxide (DMSO) and evaluated at eleven concentrations.
Using this assay, the following IC50 values derived by non-linear regression analysis were determined and compared to those values of certain compounds in U.S. Publication No. 2007/078136 and U.S. Publication No. 2008/045536.

[2] = system: Ramos B cells with beta-lactamase reporter gene under control of an NFAT response element; assay: NFAT-bla RA1 Reporter Assay (Ramos-NFAT); assay type: cell-based, human; conditions: Homo sapiens, Ramos, read-out: IMM Ramos-NFAT (IC50)
Description: NFAT-bla RA1 Reporter Assay
Ramos B cells containing a stable integration of a beta-lactamase reporter gene under the control of an NFAT response element (NFAT-bla RA1, Invitrogen, K1434) at a density of 100×10^3 cells/well were incubated with test compounds at 37° C. for 30 min prior to stimulation with F(ab′)2 anti-human IgM (Jackson ImmunoResearch, 109-006-129) at 2.5 μg/ml for 4.5 hrs at 37° C. After stimulation, LiveBLAzer-FRET B/G substrate (CCF2/AM, or CCF4/AM, Invitrogen) was added to each well and incubated for 90 min at room temperature in the dark. Assay plates were read on an LJL Analyst, with raw emission values subtracted from a media-only blank containing substrate in assay media (no cells). The ratios of 460 nm/530 nm emission (405 nm excitation) were used to calculate the amount of stimulation.

T1 sequence (Q06187 whole entry): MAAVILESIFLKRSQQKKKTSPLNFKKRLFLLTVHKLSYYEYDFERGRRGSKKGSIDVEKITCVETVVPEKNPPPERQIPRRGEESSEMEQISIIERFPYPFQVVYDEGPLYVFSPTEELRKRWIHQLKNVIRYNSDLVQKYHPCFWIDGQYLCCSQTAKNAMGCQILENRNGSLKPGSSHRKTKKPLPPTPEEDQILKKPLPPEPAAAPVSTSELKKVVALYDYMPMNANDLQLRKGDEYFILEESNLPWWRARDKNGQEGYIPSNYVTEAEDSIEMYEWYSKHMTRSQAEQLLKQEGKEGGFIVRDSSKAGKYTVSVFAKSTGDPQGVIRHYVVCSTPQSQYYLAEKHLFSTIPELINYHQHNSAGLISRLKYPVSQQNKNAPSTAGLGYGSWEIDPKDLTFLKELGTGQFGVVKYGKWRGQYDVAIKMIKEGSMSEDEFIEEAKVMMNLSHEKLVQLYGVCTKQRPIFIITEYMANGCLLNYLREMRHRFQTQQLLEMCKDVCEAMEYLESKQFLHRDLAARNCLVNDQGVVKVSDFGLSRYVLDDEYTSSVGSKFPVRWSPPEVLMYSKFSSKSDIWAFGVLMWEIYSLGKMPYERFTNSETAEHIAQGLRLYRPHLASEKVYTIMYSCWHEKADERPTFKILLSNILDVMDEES

Compound	pIC50 [1]	pIC50 [2]
CN1CCCC(c2ccc(Nc3nc(N4CCC[C@@H](NC(=O)Nc5nccs5)C4)c(F)cc3C(N)=O)cc2)C1 (stereo partly shown) [Example 557]	8.70	7.22
NC(=O)c1cc(F)c(N2CCC[C@@H](NC(=O)Nc3nccs3)C2)nc1Nc1ccc(N2CCOCC2)c(F)c1 [Example 451]	9.10	7.10
NC(=O)c1cc(F)c(N2CCC[C@@H](NC(=O)Nc3nccs3)C2)nc1Nc1ccc(CCn2ccnc2)cc1 [Example 548]	8.70	6.57
CN1CCCC(c2ccc(Nc3nc(N4CCC[C@@H](NC(=O)Nc5nnc(C(F)(F)F)s5)C4)c(F)cc3C(N)=O)cc2)C1 (stereo partly shown) [Example 559]	8.70	7.15
NC(=O)c1cc(F)c(N2CCC[C@@H](NC(=O)Nc3nccs3)C2)nc1Nc1ccc(CCN2CCC2)cc1 [Example 547]	9.00	7.30
CN1CCN(c2ccc(Nc3nc(N4CCCCC4)c(F)cc3C(N)=O)cc2)CC1 [Example 393]	7.70	6.92
CC(C)(C)OC(=O)N1CCC(O)(c2ccc(Nc3nc(N4CCCCC4)c(F)cc3C(N)=O)cc2)C(C)(C)C1 (stereo not shown) [Example 524]	5.80	5.24
CN1CCC(c2ccc(Nc3nc(N4CCC[C@@H](NC(=O)Nc5nncs5)C4)c(F)cc3C(N)=O)cc2)CC1 [Example 493]	9.15	6.89
CN1CCN(c2ccc(Nc3nc(N4CCC[C@@H](NC(=O)c5ccccc5)C4)c(F)cc3C(N)=O)cc2F)CC1 [Example 479]	9.00	7.15
CN1CCCC(c2ccc(Nc3nc(N4CCC[C@@H](NC(=O)Nc5nnc(C6CC6)s5)C4)c(F)cc3C(N)=O)cc2)C1 (stereo partly shown) [Example 560]	9.10	6.74
CN1CCCC(c2ccc(Nc3nc(N4CCC[C@@H](NC(=O)Nc5nncs5)C4)c(F)cc3C(N)=O)cc2)C1 (stereo partly shown) [Example 558]	8.70	6.42
COc1ccc([C@H](C)N[C@H]2CCC[C@@H](c3nc(Nc4ccc(N5CCOCC5)cc4)c(C(N)=O)cc3F)C2)cc1 [Example 436]	5.66	5.10
NC(=O)c1cc(F)c(N2CCC[C@@H](NC(=O)Nc3nccs3)C2)nc1Nc1ccc(N2CCOCC2)cc1 [Example 421]	8.70	7.40
CN(C)S(=O)(=O)c1ccc(Nc2nc(N3CCC[C@@H](NC(=O)c4ccccc4)C3)c(F)cc2C(N)=O)cc1 [Example 508]	9.10	6.85
CC(=O)N1CCN(c2ccc(Nc3nc(N4CCC[C@@H](NC(=O)Nc5ccc(C)c(C)c5)C4)ccc3C(N)=O)cc2)CC1 [Example 361]	8.05	7.00
Cc1csc(NC(=O)N[C@@H]2CCCN(c3ccc(C(N)=O)c(Nc4ccc(N5CCN(C)CC5)cc4)n3)C2)n1 [Example 12, (R)-2-(4-(4-Methylpiperazin-1-yl)phenylamino)-6-(3-(3-(4-methylthiazol-2-yl)ureido)piperidin-1-yl)nicotinamide]	8.15	7.40
NC(=O)c1cc(F)c(N2CCC[C@@H](NC(=O)Nc3nccs3)C2)nc1Nc1ccc(CCO)cc1 [Example 545]	8.70	6.80
CC(=O)N1CCc2c(cccc2-c2ccc(C(N)=O)c(Nc3ccc(-c4cnco4)cc3)n2)C1 [Example 347]	5.70	5.00
COc1ccc([C@H](C)N[C@H]2CCC[C@H](c3nc(Nc4ccc(N5CCOCC5)cc4)c(C(N)=O)cc3F)C2)cc1 [Example 435]	5.89	5.35
CS(=O)(=O)c1ccc(Nc2nc(N3CCC[C@@H](NC(=O)Nc4nccs4)C3)c(F)cc2C(N)=O)cc1 [Example 546]	8.52	6.64
CN1CCC(c2ccc(Nc3nc(N4CCC[C@@H](NC(=O)Nc5nccs5)C4)c(F)cc3C(N)=O)cc2)CC1 [Example 492]	9.00	7.70
NC(=O)c1ccc(-c2cccc3c2CCNC3)nc1Nc1ccc(-c2cnco2)cc1 [Example 345]	6.05	6.04
C[N+](C)([O-])CCc1ccc(Nc2nc(N3CCC[C@@H](NC(=O)Nc4nccs4)C3)c(F)cc2C(N)=O)cc1 [Example 552]	9.00	5.27
